This note sets out measurements from US20240124444A1 (Celgene Corporation, priority 2020, published 2024).

This test concerns C. parvum strain UGA1. In words: C. parvum growth inhibition assay (Nluc luminescence in HCT-8 cells). It counts as cell-based, Cryptosporidium parvum. The conditions noted are these: for EC50: C. parvum growth inhibition in HCT-8 cells, 48 hours, 6 concentrations 10-0.04 μM; for inhibition at 1 µM / inhibition at 10 µM: HCT-8; for inhibition at 1 µM: read-out: % inh @ 1 uM C. parvum; for inhibition at 10 µM: read-out: % inh @ 10 uM C. parvum.

Where [1] appears, read: Cryptosporidium parvum, HCT-8, 48 h.
Where [2] appears, read: Cryptosporidium parvum, single point inhibition at 1 uM.
Setting [3] is: Cryptosporidium parvum, single point inhibition at 10 uM.
Setting [4] is: Cryptosporidium parvum, single point inhibition @ 1 uM.
[5] abbreviates: Cryptosporidium parvum, single point inhibition @ 10 uM.

Where two headings read alike, the source gives them in different places. Bounds are passed on as bounds.

As to `CCOc1nccc(-c2cc3cnc(NC4CCOCC4)cc3[nH]2)n1` [Example 377, 2-(2-ethoxypyrimidin-4-yl)-N-(tetrahydro-2H-pyran-4-yl)-1H-pyrrolo[3,2-c]pyridin-6-amine], under setting [1], the EC50 is greater than 1 µM.

Regarding `Cn1cc(C(=O)Nc2cc3c(cn2)cc(-c2ccnc(C(F)(F)F)n2)n3C)cn1` [Example 200, 1-methyl-N-(1-methyl-2-(2-(trifluoromethyl)pyrimidin-4-yl)-1H-pyrrolo[3,2-c]pyridin-6-yl)-1H-pyrazole-4-carboxamide], under setting [2], the inhibition at 1 µM lay within 33 to 66%. For the same molecule, the inhibition at 10 µM under setting [3] fell in the range of 67 to 100%. For the molecule `O=C(Nc1cc2[nH]c(-c3ccc(F)nc3)cc2cn1)C1CC1` [Example 248, N-(2-(6-fluoropyridin-3-yl)-1H-pyrrolo[3,2-c]pyridin-6-yl)cyclopropanecarboxamide], under setting [2], the inhibition at 1 µM lay within 0 to 33%. Under setting [3], the inhibition at 10 µM was in the range of 0 to 33%. Take `COc1ccc(Nc2cc3c(cn2)cc(-c2cnn(C)c2)n3C)cc1` [Example 203, N-(4-methoxyphenyl)-1-methyl-2-(1-methyl-1H-pyrazol-4-yl)-1H-pyrrolo[3,2-c]pyridin-6-amine]: under setting [2], the inhibition at 1 µM lay in the range of 0 to 33%. Besides, under setting [3], the inhibition at 10 µM lay within 67 to 100%.

As to `Cn1c(-c2ccccn2)cc2cnc(NC(=O)C3CC3)cc21` [Example 129, N-(1-methyl-2-(pyridin-2-yl)-1H-pyrrolo[3,2-c]pyridin-6-yl)cyclopropanecarboxamide], the EC50 under setting [1] was greater than 1 µM. Same read-out and setting: the same measure for `CN1CCC(C(=O)Nc2cc3[nH]c(C(F)(F)F)cc3cn2)CC1` [Example 109, 1-methyl-N-(2-(trifluoromethyl)-1H-pyrrolo[3,2-c]pyridin-6-yl)piperidine-4-carboxamide]: greater than 1 µM. With `COc1nccc(-c2cc3cnc(NC(=O)c4cnn(C(C)C)c4)cc3n2C)n1` [Example 309, 1-isopropyl-N-(2-(2-methoxypyrimidin-4-yl)-1-methyl-1H-pyrrolo[3,2-c]pyridin-6-yl)-1H-pyrazole-4-carboxamide], the inhibition at 1 µM under setting [2] was 0 to 33%. Under setting [3], the inhibition at 10 µM lay in the range of 0 to 33%.

On to `CC(C)c1cc2cnc(NC3CCOCC3)cc2[nH]1` [Example 359, 2-isopropyl-N-(tetrahydro-2H-pyran-4-yl)-1H-pyrrolo[3,2-c]pyridin-6-amine], for which the half-maximal effective concentration (EC50) under setting [1] was greater than 1 µM. `CCOc1nccc(-c2cc3cnc(NC(=O)C4C5CCCC54)cc3[nH]2)n1` (stereo not shown) [Example 58, N-(2-(2-ethoxypyrimidin-4-yl)-1H-pyrrolo[3,2-c]pyridin-6-yl)bicyclo[3.1.0]hexane-6-carboxamide] returned an EC50 under setting [1] greater than 1 µM. The inhibition at 1 µM under setting [4] lay in the range of 0 to 33%. Further, the inhibition at 10 µM under setting [5] lay in the range of 67 to 100%. In turn, `Cc1cc(-c2cc3cnc(N[C@@H]4CCOC4)cc3[nH]2)ccn1` [Example 13, (R)-2-(2-Methylpyridin-4-yl)-N-(tetrahydrofuran-3-yl)-1H-pyrrolo[3,2-c]pyridin-6-amine] gave an EC50 of 0.5 to 1 µM. In addition, the inhibition at 1 µM under setting [4] lay within 33 to 66%. For the same molecule, the inhibition at 10 µM under setting [5] is 67 to 100%. In the case of `Cn1cc(C(=O)Nc2cc3[nH]c(-c4ccc(F)cn4)cc3cn2)cn1` [Example 334, N-(2-(5-fluoropyridin-2-yl)-1H-pyrrolo[3,2-c]pyridin-6-yl)-1-methyl-1H-pyrazole-4-carboxamide], the inhibition at 1 µM under setting [2] lay within 0 to 33%. For the same molecule, the inhibition at 10 µM under setting [3] lay in the range of 0 to 33%. As to `O=C(Nc1cc2[nH]c(-c3ccncc3)cc2cn1)C1CCOCC1` [Example 68, N-(2-(pyridin-4-yl)-1H-pyrrolo[3,2-c]pyridin-6-yl)tetrahydro-2H-pyran-4-carboxamide], the EC50 under setting [1] was greater than 1 µM. Besides, under setting [4], the inhibition at 1 µM fell in the range of 0 to 33%. Besides, under setting [5], the inhibition at 10 µM is 67 to 100%. For the molecule `O=C(Nc1cc2[nH]c(-c3ccnc(OCCF)n3)cc2cn1)c1cnn(C2CCOCC2)c1` [Example 225, N-(2-(2-(2-fluoroethoxy)pyrimidin-4-yl)-1H-pyrrolo[3,2-c]pyridin-6-yl)-1-(tetrahydro-2H-pyran-4-yl)-1H-pyrazole-4-carboxamide], under setting [2], the inhibition at 1 µM lay in the range of 0 to 33%. Under setting [3], the inhibition at 10 µM is 33 to 66%. Take `Cc1nn(C)cc1C(=O)Nc1cc2[nH]c(-c3ccnc(OCC(F)F)n3)cc2cn1` [Example 317, N-(2-(2-(2,2-difluoroethoxy)pyrimidin-4-yl)-1H-pyrrolo[3,2-c]pyridin-6-yl)-1,3-dimethyl-1H-pyrazole-4-carboxamide]: the inhibition at 1 µM under setting [2] is 0 to 33%. In addition, the inhibition at 10 µM under setting [3] lay in the range of 0 to 33%. Consider `Cc1cc(-c2cc3cnc(NC(=O)c4cc(C(F)F)nn4C)cc3[nH]2)ccn1` [Example 218, 3-(difluoromethyl)-1-methyl-N-(2-(2-methylpyridin-4-yl)-1H-pyrrolo[3,2-c]pyridin-6-yl)-1H-pyrazole-5-carboxamide], for which the inhibition at 1 µM under setting [2] is 0 to 33%. Moreover, under setting [3], the inhibition at 10 µM fell in the range of 33 to 66%. Consider `Cc1ccnc(-c2cc3cnc(NC4CCOCC4)cc3[nH]2)c1` [Example 350, 2-(4-methylpyridin-2-yl)-N-(tetrahydro-2H-pyran-4-yl)-1H-pyrrolo[3,2-c]pyridin-6-amine], for which the EC50 under setting [1] was greater than 1 µM.

Under setting [1], `Cn1cnc(-c2cc3cnc(NC(=O)C4CC4)cc3[nH]2)c1` [Example 60, N-(2-(1-methyl-1H-imidazol-4-yl)-1H-pyrrolo[3,2-c]pyridin-6-yl)cyclopropanecarboxamide] yielded an EC50 greater than 1 µM. For `Cn1cc(C(=O)Nc2cc3[nH]c(-c4ccnc(OCC(F)(F)F)n4)cc3cn2)cn1` [Example 308, 1-methyl-N-(2-(2-(2,2,2-trifluoroethoxy)pyrimidin-4-yl)-1H-pyrrolo[3,2-c]pyridin-6-yl)-1H-pyrazole-4-carboxamide], the inhibition at 1 µM under setting [2] is 0 to 33%. Moreover, under setting [3], the inhibition at 10 µM was in the range of 0 to 33%. For the molecule `Cn1cc(C(=O)Nc2cc3[nH]c(-c4ccnc(OCC(F)F)n4)cc3cn2)cn1` [Example 310, N-(2-(2-(2,2-difluoroethoxy)pyrimidin-4-yl)-1H-pyrrolo[3,2-c]pyridin-6-yl)-1-methyl-1H-pyrazole-4-carboxamide], the inhibition at 1 µM under setting [2] was in the range of 0 to 33%. Under setting [3], the inhibition at 10 µM is 0 to 33%. As for `COc1nccc(-c2cc3cnc(NC(=O)c4cccc5c4cnn5C)cc3[nH]2)n1` [Example 220, N-(2-(2-methoxypyrimidin-4-yl)-1H-pyrrolo[3,2-c]pyridin-6-yl)-1-methyl-1H-indazole-4-carboxamide], the inhibition at 1 µM under setting [2] fell in the range of 0 to 33%. The inhibition at 10 µM under setting [3] is 33 to 66%. Consider `CNC(=O)c1ccc(Nc2cc3[nH]c(-c4ccnc(C)c4)cc3cn2)cc1` [Example 190, N-methyl-4-(2-(2-methylpyridin-4-yl)-1H-pyrrolo[3,2-c]pyridin-6-ylamino)benzamide], for which the inhibition at 1 µM under setting [4] is 0 to 33%. Also, under setting [5], the inhibition at 10 µM fell in the range of 67 to 100%. Consider `COCCOc1ccc(C(=O)Nc2cc3[nH]c(-c4ccnc(C)c4)cc3cn2)cc1OC` [Example 295, 3-methoxy-4-(2-methoxyethoxy)-N-(2-(2-methylpyridin-4-yl)-1H-pyrrolo[3,2-c]pyridin-6-yl)benzamide], for which, under setting [2], the inhibition at 1 µM lay in the range of 0 to 33%. The inhibition at 10 µM under setting [3] lay within 0 to 33%. For `Cn1cc(C(=O)Nc2cc3c(cn2)cc(-c2ccnc(NCC(F)F)n2)n3C)cn1` [Example 144, N-(2-(2-(2,2-difluroethylamino)pyrimidin-4-yl)-1-methyl-1H-pyrrolo[3,2-c]pyridin-6-yl)-1-methyl-1H-pyrazole-4-carboxmaide], the inhibition at 1 µM under setting [4] was in the range of 0 to 33%. Further, the inhibition at 10 µM under setting [5] was 67 to 100%.

Under setting [1], `Cc1nccc(-c2cc3cnc(NC4CCOCC4)cc3n2C)n1` [Example 378, 1-methyl-2-(2-methylpyrimidin-4-yl)-N-(tetrahydro-2H-pyran-4-yl)-1H-pyrrolo[3,2-c]pyridin-6-amine] displayed a 50% effective concentration (EC50) greater than 1 µM.

For `CC(C)n1cc(C(=O)Nc2cc3c(cn2)cc(-c2ccnc(NCC4CC4)n2)n3C)cn1` [Example 131, N-(2-(2-(cyclopropylmethylamino)pyrimidin-4-yl)-1-methyl-1H-pyrrolo[3,2-c]pyridin-6-yl)-1-isopropyl-1H-pyrazole-4-carboxmaide], under setting [4], the inhibition at 1 µM lay in the range of 0 to 33%. Besides, the inhibition at 10 µM under setting [5] was 67 to 100%. For `FC1(F)CC(c2cc3cnc(NC4CCOCC4)cc3[nH]2)C1` [Example 397, 2-(3,3-difluorocyclobutyl)-N-(tetrahydro-2H-pyran-4-yl)-1H-pyrrolo[3,2-c]pyridin-6-amine], under setting [2], the inhibition at 1 µM fell in the range of 33 to 66%. Also, under setting [3], the inhibition at 10 µM lay in the range of 33 to 66%. For the molecule `Cc1cc2cnc(NC(=O)c3cnn(C)c3)cc2[nH]1` [Example 285, 1-methyl-N-(2-methyl-1H-pyrrolo[3,2-c]pyridin-6-yl)-1H-pyrazole-4-carboxamide], the inhibition at 1 µM under setting [2] is 0 to 33%. In addition, the inhibition at 10 µM under setting [3] is 0 to 33%.

Take `CCOc1nccc(-c2cc3cnc(NC(=O)c4cccc5cn[nH]c45)cc3[nH]2)n1` [Example 243, N-(2-(2-ethoxypyrimidin-4-yl)-1H-pyrrolo[3,2-c]pyridin-6-yl)-1H-indazole-7-carboxamide]: the inhibition at 1 µM under setting [2] lay in the range of 0 to 33%. Under setting [3], the inhibition at 10 µM lay within 0 to 33%. Under setting [1], `O=C(Nc1cc2[nH]c(C(F)(F)F)cc2cn1)C1CCC1` [Example 76, N-(2-(trifluoromethyl)-1H-pyrrolo[3,2-c]pyridin-6-yl)cyclobutanecarboxamide] displayed an EC50 greater than 1 µM. Under setting [1], `Cn1cc(C(=O)Nc2cc3[nH]c(CCCO)cc3cn2)cn1` [Example 89, N-(2-(3-hydroxypropyl)-1H-pyrrolo[3,2-c]pyridin-6-yl)-1-methyl-1H-pyrazole-4-carboxamide] gave an EC50 greater than 1 µM. In addition, the inhibition at 1 µM under setting [4] lay in the range of 0 to 33%. The inhibition at 10 µM under setting [5] fell in the range of 0 to 33%. Turning to `O=C(Nc1cc2[nH]c(-c3ccnc(OCC(F)F)n3)cc2cn1)c1cnn([C@H]2CC[C@@H](O)CC2)c1` [Example 323, N-(2-(2-(2,2-difluoroethoxy)pyrimidin-4-yl)-1H-pyrrolo[3,2-c]pyridin-6-yl)-1-((1s,4s)-4-hydroxycyclohexyl)-1H-pyrazole-4-carboxamide], under setting [2], the inhibition at 1 µM lay in the range of 0 to 33%. The inhibition at 10 µM under setting [3] lay in the range of 0 to 33%.

One may read the EC50 as the concentration giving half of the maximal effect.
